The values that follow are results of earlier work, collected in US20070218128A1, “Manufacturing of Quick Release Pharmaceutical Compositions of Water Insoluble Drugs and Pharmaceutical Compositions Obtained By the Process of the Invention” (priority 2004, published 2007).

For data set [1] the following is noted: approximate values; for pKa1 / pKa2 / pKa3: Table 1 amino acids; for pKa: Table 1 alkaline substances, refer to the pKa of the acid.
The conditions of data set [2]: for solubility in water and in 0.1 N HCl: water and 0.1 N HCl.

Read-outs that look alike come from different tables or passages of the source.

Take `NCCCC[C@H](N)C(=O)O` [Lysine]: in data set [1], the pKa1 entry is on record as “pKa1: 2.2” and the pKa2 result was “pKa2: 8.9”.
On to `N[C@@H](Cc1c[nH]cn1)C(=O)O` [Histidine], for which, in data set [1], the pKa1 result was “pKa1: 1.8”, the pKa2 result is “pKa2: 6.0” and the pKa3 result is recorded as “pKa3: 9.0”. Also, the pH result (10 g/L H2O) was “pH ≈ 7.7”.
Turning to `CC(=O)Oc1ccccc1C(=O)O` [acetylsalicylic acid], the “solubility in water and in 0.1 N HCl” value in data set [2] (room temperature) is given as “practically insoluble”.
For orientation: pKa means the negative logarithm of the acid dissociation constant. In the case of `NN` [Hydrazine], the pKa in data set [1] is 8.
Take `COc1ccc2c3c1O[C@H]1[C@@H](O)C=C[C@H]4[C@@H](C2)N(C)CC[C@@]341` [Codeine, reference compound]: where the note is “saturated solution”, the “pH in saturated solution” value was “solution ≈ 9.8)”.
Consider `CN1C(C(=O)Nc2ccccn2)=C(O)c2sc(Cl)cc2S1(=O)=O` [lornoxicam], for which, in data set [2] (0.1 N HCl), the “solubility in 0.1 N HCl” value is listed as “less than 0.1 % w/v”. In data set [2] (0.1 N HCl, room temperature), the “solubility at a pH of 0.1 N HCl” value is recorded as “less than 1 mg/100 ml”.
Regarding `O=C([O-])/C=C\C(=O)[O-].[Na+].[Na+]` [Sodium maleate], the pKa in data set [1] was 6.2.
As for `COc1ccc2c(c1)c(CC(=O)O)c(C)n2C(=O)c1ccc(Cl)cc1` [indometacin], in data set [2] (room temperature), the “solubility in water and in 0.1 N HCl” value is given as “practically insoluble”.
As to `O=C([O-])[O-].[Na+].[Na+]` [Di-sodium carbonate], the pKa in data set [1] is given as 10.3.
On to `N=C(N)NCCC[C@H](N)C(=O)O` [Arginine], for which, in data set [1], the pKa1 result is listed as “pKa1: 2.2”, the pKa2 result was “pKa2: 9.1” and the pKa3 result is recorded as “pKa3: 13.2”. Moreover, where the note is “100 g/L H2O”, the pH result is on record as “pH ≈ 11.4”.
`O=C([O-])/C=C/C(=O)[O-].[Na+].[Na+]` [Sodium fumerate]: the pKa in data set [1] is 4.4.
